Measurements as given in US20230285280A1, “A DEVICE FOR USE IN THE DELIVERY OF AN ACTIVE AGENT” (ROYAL COLLEGE OF SURGEONS IN IRELAND, priority 2020, published 2023).

Assay: Active agent release from scaffold or scaffold+matrix in PBS at 37° C.
Assay type: physicochemical
Procedure: Release of nanoparticle-encapsulated active agent (either pirfenidone or prednisolone) from a matrix and release of active agent from a scaffold was assessed in the same manner. In short, one sample (of either a printed mesh (scaffold) or mesh+gel (scaffold and matrix)) per 1.5 mL eppendorf tube was incubated in 1 mL of PBS at 37° C. under agitation in a heated water bath. The release buffer was completely exchanged at selected time points of T=4 hrs, T=24 hrs, T=48 hrs, T=1 week, T=2 weeks, T=3 weeks, and T=4 weeks, T=6 weeks, T=8 weeks, T=10 weeks, T=12 weeks with samples stored at -20° C. until analysis. Release studies were undertaken for up to 28 days and released active agent concentrations were determined via extrapolation from a standard curve. Blank scaffolds (containing no active agent) were tested and readings were subtracted as an additional background control. Samples containing pirfenidone were analysed at 317 nm and samples containing prednisolone were analysed at 245 nm. Using either 3D drug printing or nanoparticle incorporation, it was possible to achieve a rapid release of active agent in the first 24 hours as well as a continuous release of drug over a 28 day period (FIG. 19).

Structure (SMILES) | daily and cumulative prednisolone drug release (from 3D printed PCL scaffolds with no surrounding matrix, FIG. 10) | cumulative prednisolone release (from nanoparticles in a freeze-dried scaffold and hyaluronic acid matrix, FIG. 11) | pirfenidone release when scaffold combined with the hyaluronic acid matrix (higher (50 kDa) molecular weight PCL scaffold, in the presence of the hydrated matrix, FIG. 9B) | pirfenidone release when scaffold combined with the hyaluronic acid matrix (lower molecular weight PCL scaffold, added to the matrix, FIG. 9A)
C[C@]12C=CC(=O)C=C1CC[C@@H]1[C@@H]2[C@@H](O)C[C@@]2(C)[C@H]1CC[C@]2(O)C(=O)CO [prednisolone, 11β-11,17,21-Trihydroxypregna-1,4-diene-3,20-dione] | biphasic release up to 28 days | rapid and sustained release | – | –
Cc1ccc(=O)n(-c2ccccc2)c1 [pirfenidone, 5-Methyl-1-phenylpyridin-2-one] | – | – | negligible difference | release was slowed
